One data set concerns the target mTOR (Homo sapiens, UniProt P42345). Put plainly: Kinase selectivity: inhibitory activity against mTOR. The format is biochemical. As to conditions: 10 concentrations, 10 μM to 0.51 nM. On the procedure: (§1) The compound of the present disclosure was assayed for inhibition of the same family (ATM, DNA-PK and mTOR):
(§2) According to the assay method reported in the literature, the compound to be assayed was serially diluted 3-fold to 0.51 nM starting from 10 μM (a total of 10 concentrations), and assayed for the inhibitory activities against kinases ATM^1, DNA-PK^2 and mTOR^3, respectively.

Another data set addresses DNA-PK (Homo sapiens, UniProt P78527). As to the kind of experiment: Kinase selectivity: inhibitory activity against DNA-PK. As to conditions: 10 concentrations, 10 μM to 0.51 nM; read-out: IC50/DNAPK. The format is biochemical. As for the experimental part: as §1, §2
For a further data set, the system named is MV4-11 (leukemia). Put plainly: Cell proliferation inhibition in vitro, CellTiter-Glo, MV4-11. As to conditions: Homo sapiens; MV4-11 cells, 120 hours, CellTiter-Glo; read-out: MV4-11/IC50/μM. The format is cell-based. On the procedure:
(§3) By detecting the effect of compounds on cell activity in vitro in tumor cell lines TOV21G (ovarian cancer) and MV4-11 (leukemia), the inhibitory effect of compounds on cell proliferation was studied in this assay.
(§4) TOV21G cells and MV4-11 cells were purchased from American Type Culture Collection (ATCC).
MV-4-11 cells were cultured in IMDM medium (containing 20% of FBS). About 10,000 cells were inoculated in each well of a 96-well culture plate, and treated by adding different concentrations (0-10 μM) of compounds to be assayed. Each group was assayed in triplicate. Blank wells (containing medium only) and control wells (inoculated cells without being treated with drug) were set. Cells were cultured for 120 hours. 40 μL of Cell Titer-Glo solutions were added to each well, and the cells were incubated with shaking for 20 min in the dark. 100 μL of solution was transferred from each well to a 96-well blank plate, and the luminescence value was read by Biotek Synergy HI multifunctional microplate reader. Inhibition rate (%)=100%×(control well−assay well)/(control well−blank well)

Data set [1] is described as follows: In vivo oral administration pharmacokinetics in mice. The arrangement: AUC: concentration or dose not given beside the values. As to conditions: mouse. From the text: Based on the in vitro activity results, representative compounds were selected for in vivo pharmacokinetic studies.
In Vivo Oral Administration—Pharmacokinetic Results in Mice: […]

Another data set deals with TOV21G (ovarian cancer). As to the kind of experiment: Cell proliferation inhibition in vitro, CellTiter-Glo, TOV21G. Type of data set: cell-based. As to conditions: Homo sapiens; TOV21G cells, 120 hours, CellTiter-Glo; read-out: TOV21G/IC50/μM. On the procedure:
as §3, §4
TOV21G cells were cultured in MCDB105/M199 medium (containing 15% of FBS), and used for assaying when the cell confluence reached 85% or more. About 1000 cells were inoculated in each well of a 96-well culture plate, and cultured for 24 hours. Different concentrations (0-10 μM) of compounds to be assayed were added to treat the cells. Each group was assayed in triplicate. Blank wells (containing medium only) and control wells (inoculated cells without being treated with drug) were set. Cells were cultured for 120 hours. 40 μL of Cell Titer-Glo solutions (Promega, #G7573) were added to each well, and the cells were incubated with shaking for 20 min in the dark. 100 μL of solution was transferred from each well to a 96-well blank plate (Corning, #3917), and the luminescence value was read by Biotek Synergy H1 multifunctional microplate reader.

A further data set deals with ATR kinase (Homo sapiens, UniProt Q13535). As to the kind of experiment: Assay of ATR kinase activity (time-resolved fluorescence, phosphorylation of p53-derived protein). The format is biochemical. As for the experimental part: Biotinylated protein derived from p53 (Eurofins, art. No.: 14-952) was phosphorylated with ATR kinase. The amount of phosphorylated protein was determined by time-resolved fluorescence in this assay. The amount of phosphorylated protein was detected by anti-p53-phospho-(serine 15)-K-specific antibody (Cisbio, art. No.: 61GSTDLA) and d2 labeled anti-GST antibody (Cisbio, art. No. 61P08KAE). Before the assay, the following working solutions were formulated as required: 1×reaction buffer (20 mM HEPES PH8.0, 1% glycerol, 0.01% Brij-35), dilution buffer (20 mM HEPES PH8.0, 1% glycerol, 0.01% Brij-35, 5 mM DTT and 1% BSA), stop solution (20 mM HEPES PH8.0, 1% glycerol, 0.01% Brij-35, 250 mM EDTA), detection buffer (50 mM HEPES pH7.0, 150 mM NaCl, 267 mM KF, 0.1% sodium cholate, 0.01% Tween-20, 0.0125% sodium azide). The reagents used above were purchased from Sigma or Invitrogen, except for those whose manufacturers were mentioned.
Operations were as follows:
4× serially diluted compound solutions were prepared with 1× reaction buffer to give 9 compound solutions with different concentrations, and 2.5 μL of the 4× serially diluted compound solutions were added to a 384-well analysis plate (784075, Greiner). 4×p53 substrate working solution (40 nM) was prepared with 1× reaction buffer, and 2.5 μL of the 4×p53 substrate working solution was added to a 384-well analysis plate. 4×ATR/ATRIP working solution (12.8 ng/μL) was prepared with dilution buffer, and 2.5 μL of the 4×pATR/ATRIP working solution was added to a 384-well analysis plate. 4×ATP working solution (2 mM) was prepared with deionized water, and 2.5 μL of the 4×ATP working solution was added to a 384-well analysis plate. The plates were incubated at room temperature in dark for 30 minutes. 5 μL of stop solution was added to the 384 analysis plates. Finally, 5 μL of assay mixture (0.084 ng/μL Anti-phospho-p53(ser15)-K and 5 ng/μL Anti-GST-d2) was added to the 384 well analysis plates, and incubated at room temperature overnight. The fluorescence signal was detected with ENVISION (Perkinelmer) instrument (excitation wavelength: 320 nm, emission wavelength: 665 nm and 615 nm). The inhibition rate in each well was calculated by the fluorescence intensity value in each well:ER (Emission Ratio)=(Fluorescence intensity at 665 nm/Fluorescence intensity at 615 nm); inhibition rate=(ER of positive−ER of assay compound)/(ER of positive−ER of negative)×100%. IC50 values of compounds were calculated by standard software for parameter fitting (GraphPad Prism 6.0).

The target in another data set is ATM (Homo sapiens, UniProt Q13315). As to the kind of experiment: Kinase selectivity: inhibitory activity against ATM. The format is biochemical. As to conditions: 10 concentrations, 10 μM to 0.51 nM. On the procedure: as §1, §2

ATR kinase, sequence (Q13535 whole entry): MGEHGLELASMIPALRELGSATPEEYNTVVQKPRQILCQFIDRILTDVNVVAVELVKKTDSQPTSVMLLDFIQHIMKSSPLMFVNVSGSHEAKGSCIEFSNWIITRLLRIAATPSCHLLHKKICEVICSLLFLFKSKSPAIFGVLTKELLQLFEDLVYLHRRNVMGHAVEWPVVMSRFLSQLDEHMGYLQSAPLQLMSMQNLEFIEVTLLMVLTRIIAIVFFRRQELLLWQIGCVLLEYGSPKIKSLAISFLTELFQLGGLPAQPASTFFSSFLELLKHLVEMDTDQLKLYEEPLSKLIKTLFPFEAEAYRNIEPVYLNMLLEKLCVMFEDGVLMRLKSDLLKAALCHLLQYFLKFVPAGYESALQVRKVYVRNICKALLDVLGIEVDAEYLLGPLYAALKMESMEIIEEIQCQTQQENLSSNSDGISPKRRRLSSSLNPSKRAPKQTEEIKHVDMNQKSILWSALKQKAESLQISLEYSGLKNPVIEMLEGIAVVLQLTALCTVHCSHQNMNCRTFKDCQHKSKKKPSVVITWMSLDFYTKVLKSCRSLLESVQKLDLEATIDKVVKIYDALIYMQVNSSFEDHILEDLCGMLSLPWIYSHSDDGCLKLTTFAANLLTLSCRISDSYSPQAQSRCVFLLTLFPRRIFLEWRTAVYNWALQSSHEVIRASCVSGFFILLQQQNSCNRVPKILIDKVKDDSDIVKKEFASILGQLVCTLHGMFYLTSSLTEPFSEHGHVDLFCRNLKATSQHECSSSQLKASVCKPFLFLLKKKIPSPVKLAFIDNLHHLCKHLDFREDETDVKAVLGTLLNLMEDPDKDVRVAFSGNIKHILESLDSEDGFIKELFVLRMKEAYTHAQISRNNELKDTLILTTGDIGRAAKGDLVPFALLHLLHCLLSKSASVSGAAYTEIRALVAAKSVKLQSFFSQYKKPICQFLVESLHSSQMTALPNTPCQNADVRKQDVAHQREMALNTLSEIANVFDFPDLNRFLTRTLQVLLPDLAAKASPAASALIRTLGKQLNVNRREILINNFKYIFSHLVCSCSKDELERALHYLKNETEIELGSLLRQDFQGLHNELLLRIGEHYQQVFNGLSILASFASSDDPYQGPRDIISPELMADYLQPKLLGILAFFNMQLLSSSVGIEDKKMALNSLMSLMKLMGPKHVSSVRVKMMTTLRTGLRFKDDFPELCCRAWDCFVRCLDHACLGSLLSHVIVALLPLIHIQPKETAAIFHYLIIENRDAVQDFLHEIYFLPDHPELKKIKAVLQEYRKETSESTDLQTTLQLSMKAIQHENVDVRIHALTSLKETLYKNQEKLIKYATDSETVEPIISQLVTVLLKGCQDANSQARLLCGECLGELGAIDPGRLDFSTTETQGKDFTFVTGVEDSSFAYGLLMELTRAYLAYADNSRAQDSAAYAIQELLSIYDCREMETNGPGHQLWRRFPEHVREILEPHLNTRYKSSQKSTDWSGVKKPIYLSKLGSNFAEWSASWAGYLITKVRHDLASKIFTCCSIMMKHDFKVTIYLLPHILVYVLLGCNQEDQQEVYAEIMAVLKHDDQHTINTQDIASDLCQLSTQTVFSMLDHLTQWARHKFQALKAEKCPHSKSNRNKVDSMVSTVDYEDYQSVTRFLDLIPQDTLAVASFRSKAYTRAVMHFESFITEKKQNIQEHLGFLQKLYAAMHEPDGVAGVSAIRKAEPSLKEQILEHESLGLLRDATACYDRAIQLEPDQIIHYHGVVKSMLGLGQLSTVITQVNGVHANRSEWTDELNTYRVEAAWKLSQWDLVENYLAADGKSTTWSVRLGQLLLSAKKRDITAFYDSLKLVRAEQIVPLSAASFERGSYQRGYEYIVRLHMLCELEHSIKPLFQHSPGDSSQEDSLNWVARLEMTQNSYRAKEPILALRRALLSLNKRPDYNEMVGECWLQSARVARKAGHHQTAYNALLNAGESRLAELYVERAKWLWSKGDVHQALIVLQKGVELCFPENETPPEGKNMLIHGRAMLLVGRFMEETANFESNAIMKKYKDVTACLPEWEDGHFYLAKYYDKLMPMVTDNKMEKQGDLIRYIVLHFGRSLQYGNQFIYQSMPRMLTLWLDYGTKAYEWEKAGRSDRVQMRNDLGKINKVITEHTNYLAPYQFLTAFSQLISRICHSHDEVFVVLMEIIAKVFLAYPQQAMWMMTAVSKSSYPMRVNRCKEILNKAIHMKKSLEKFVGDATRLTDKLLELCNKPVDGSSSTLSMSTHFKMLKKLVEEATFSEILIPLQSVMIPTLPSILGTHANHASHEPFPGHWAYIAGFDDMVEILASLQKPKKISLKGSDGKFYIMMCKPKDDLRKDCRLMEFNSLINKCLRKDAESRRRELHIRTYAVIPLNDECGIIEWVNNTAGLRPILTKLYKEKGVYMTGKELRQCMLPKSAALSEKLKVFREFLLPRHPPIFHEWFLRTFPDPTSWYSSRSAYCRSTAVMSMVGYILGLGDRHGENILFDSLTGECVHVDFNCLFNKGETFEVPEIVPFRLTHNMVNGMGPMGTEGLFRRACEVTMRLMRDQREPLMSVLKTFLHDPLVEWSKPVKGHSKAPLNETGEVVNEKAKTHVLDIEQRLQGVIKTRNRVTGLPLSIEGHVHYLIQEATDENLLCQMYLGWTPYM
ATR kinase, sequence (Q8WXE1 whole entry partner): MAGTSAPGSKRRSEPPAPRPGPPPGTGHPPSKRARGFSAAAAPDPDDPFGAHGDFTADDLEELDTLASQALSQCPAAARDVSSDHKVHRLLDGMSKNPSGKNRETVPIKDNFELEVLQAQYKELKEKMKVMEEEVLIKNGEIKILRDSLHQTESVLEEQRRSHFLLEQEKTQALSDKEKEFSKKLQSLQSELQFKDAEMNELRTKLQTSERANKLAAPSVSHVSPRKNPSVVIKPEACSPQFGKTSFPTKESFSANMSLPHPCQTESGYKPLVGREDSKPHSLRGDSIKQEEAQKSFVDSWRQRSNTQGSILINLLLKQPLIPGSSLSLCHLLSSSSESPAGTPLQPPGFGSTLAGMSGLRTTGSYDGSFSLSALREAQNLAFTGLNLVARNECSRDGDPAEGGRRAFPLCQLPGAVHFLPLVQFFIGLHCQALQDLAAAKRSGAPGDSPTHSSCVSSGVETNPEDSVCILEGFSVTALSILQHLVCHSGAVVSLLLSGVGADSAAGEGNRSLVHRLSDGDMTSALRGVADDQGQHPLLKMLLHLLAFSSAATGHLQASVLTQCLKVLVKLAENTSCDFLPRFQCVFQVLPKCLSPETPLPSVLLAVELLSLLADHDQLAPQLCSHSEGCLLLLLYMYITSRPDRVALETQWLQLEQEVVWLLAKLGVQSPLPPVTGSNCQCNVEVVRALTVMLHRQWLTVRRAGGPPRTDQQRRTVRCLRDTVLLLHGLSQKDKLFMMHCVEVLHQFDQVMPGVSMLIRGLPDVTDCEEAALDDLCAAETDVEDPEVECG

Consider `Cc1nn(-c2cncc(F)c2)c(C)c1-c1cc(N2CCOC[C@H]2C)nc(-c2cc(CO)cc3[nH]ccc23)n1` [Compound A22], for which the IC50 against mTOR stood at 1160 nM; at DNA-PK, 284 nM; in the data set on MV4-11 (leukemia) it was 0.169 µM; in the data set with TOV21G (ovarian cancer), 0.457 µM; at ATR kinase, 5 nM; against ATM, 2590 nM. Moreover, in data set [1], the AUC worked out at 1200 ng·h/mL. In addition, the concentration in data set [1] peaked (Cmax) at 865 ng/mL. The Tmax in data set [1] turned out to be 19.8 min. For the same compound, the half-life in data set [1] is 84 min.

(Values after patent US12692257B2, “2,4,6-tri-substituted pyrimidine compounds as ATR kinase inhibitors” (BEIJING TIDE PHARMACEUTICAL CO., LTD., priority 2020, dated 2026).)
